Several values for one entry are separate records, joined by “and”; a condition that tells them apart may be missing. Equal entries are not always repeated.
Tests used:
[1] = for vapor or sublimation pressure: Calculated from knudsen effusion weight loss; for Triple point temperature: DTA
[2] = molar heat capacity at constant pressure; conditions: 101.33 kPa, Small sample (50 mg) DSC
[3] = Molar enthalpy of transition or fusion; conditions: DSC

O=C1NCCN1 [2-imidazolidinone]
Conditions | molar heat capacity at constant pressure [J/K/mol] | vapor or sublimation pressure
[1], 327.2 K, Crystal 2 | – | 0.0001064 kPa and 0.0001074 kPa and 0.0001035 kPa
[1], 329.21 K, Crystal 2 | – | 0.0001364 kPa and 0.0001328 kPa and 0.0001305 kPa
[1], 331.14 K, Crystal 2 | – | 0.0001664 kPa and 0.0001631 kPa and 0.0001658 kPa
[1], 333.19 K, Crystal 2 | – | 0.0002142 kPa and 0.0002049 kPa and 0.0002095 kPa
[1], 335.21 K, Crystal 2 | – | 0.0002681 kPa and 0.0002592 kPa and 0.0002535 kPa
[1], 337.15 K, Crystal 2 | – | 0.0003214 kPa and 0.000301 kPa and 0.00032 kPa
[1], 339.2 K, Crystal 2 | – | 0.0003984 kPa and 0.0003883 kPa
[1], 341.21 K, Crystal 2 | – | 0.000457 kPa and 0.0004831 kPa and 0.0004721 kPa
[1], 343.14 K, Crystal 2 | – | 0.0005644 kPa and 0.0005525 kPa and 0.0005387 kPa
[1], 345.19 K, Crystal 2 | – | 0.0006621 kPa and 0.0006672 kPa and 0.0006399 kPa
[1], 347.2 K, Crystal 1 | – | 0.0007833 kPa and 0.0008114 kPa and 0.0007693 kPa
[1], 349.16 K, Crystal 1 | – | 0.0009806 kPa and 0.0009769 kPa and 0.0009472 kPa
[2], 268.15 K, Crystal 2 | 99.4 | –
[2], 270.15 K, Crystal 2 | 100 | –
[2], 275.15 K, Crystal 2 | 101.5 | –
[2], 280.15 K, Crystal 2 | 102.7 | –
[2], 285.15 K, Crystal 2 | 103.9 | –
[2], 290.15 K, Crystal 2 | 105.1 | –
[2], 295.15 K, Crystal 2 | 106.3 | –
[2], 298.15 K, Crystal 2 | 107.7 | –
[2], 300.15 K, Crystal 2 | 108.5 | –
[2], 305.15 K, Crystal 2 | 110.2 | –
[2], 310.15 K, Crystal 2 | 111.9 | –
[2], 315.15 K, Crystal 2 | 113.2 | –
[2], 320.15 K, Crystal 2 | 115.4 | –
[2], 325.15 K, Crystal 2 | 117.3 | –
[2], 330.15 K, Crystal 2 | 119 | –
[2], 335.15 K, Crystal 2 | 120.9 | –
[2], 338.15 K, Crystal 2 | 122.1 | –

Conditions | Molar enthalpy of transition or fusion, [3] [kJ/mol] | Triple point temperature, [1] [K]
Crystal 1 | 13.2 | 404.8
Crystal 2 | 3.8 | 346.6

O=C1NCCCN1 [tetrahydropyrimidin-2(1H)-one]
Crystal
Conditions | molar heat capacity at constant pressure [J/K/mol] | vapor or sublimation pressure
[1], 363.19 K | – | 0.0001292 kPa and 0.0001261 kPa and 0.0001216 kPa
[1], 365.18 K | – | 0.0001581 kPa and 0.0001562 kPa and 0.0001488 kPa
[1], 367.14 K | – | 0.0001903 kPa and 0.0001913 kPa and 0.0001858 kPa
[1], 369.19 K | – | 0.0002232 kPa and 0.0002283 kPa
[1], 371.17 K | – | 0.000271 kPa and 0.0002737 kPa and 0.0002643 kPa
[1], 373.15 K | – | 0.0003343 kPa and 0.0003328 kPa
[1], 375.18 K | – | 0.0003988 kPa and 0.000402 kPa
[1], 377.18 K | – | 0.0004813 kPa and 0.0004804 kPa and 0.0004655 kPa
[1], 379.16 K | – | 0.0005717 kPa and 0.0005887 kPa and 0.0005753 kPa
[1], 381.18 K | – | 0.000719 kPa and 0.000702 kPa and 0.000673 kPa
[1], 383.18 K | – | 0.0008587 kPa and 0.0008463 kPa
[1], 385.16 K | – | 0.001027 kPa and 0.0009846 kPa
[2], 268.15 K | 117.2 | –
[2], 270.15 K | 118 | –
[2], 275.15 K | 120.1 | –
[2], 280.15 K | 122.2 | –
[2], 285.15 K | 124.1 | –
[2], 290.15 K | 126.2 | –
[2], 295.15 K | 128.1 | –
[2], 298.15 K | 129.5 | –
[2], 300.15 K | 130.4 | –
[2], 305.15 K | 132.7 | –
[2], 310.15 K | 135.3 | –
[2], 315.15 K | 137.8 | –
[2], 320.15 K | 140.2 | –
[2], 325.15 K | 142.6 | –
[2], 330.15 K | 145.1 | –
[2], 335.15 K | 147.3 | –
[2], 340.15 K | 150.1 | –
[2], 345.15 K | 152.2 | –
[2], 350.15 K | 155.1 | –
[2], 355.15 K | 157.2 | –
[2], 360.15 K | 159.9 | –
[2], 365.15 K | 163.8 | –
[2], 370.15 K | 166.5 | –
[2], 375.15 K | 169.8 | –
[2], 380.15 K | 172.4 | –
[2], 385.15 K | 175.1 | –
[2], 390.15 K | 177.3 | –
[2], 395.15 K | 180.4 | –
[2], 400.15 K | 183.3 | –
[2], 405.15 K | 186.5 | –
[2], 410.15 K | 189.8 | –
[2], 415.15 K | 193.9 | –
[2], 420.15 K | 197.1 | –
[2], 425.15 K | 200.8 | –
[2], 430.15 K | 202.7 | –
[2], 435.15 K | 204.9 | –
[2], 440.15 K | 207.5 | –
[2], 445.15 K | 210.3 | –
[2], 450.15 K | 213.3 | –
[2], 455.15 K | 215.9 | –
[2], 460.15 K | 219.1 | –
[2], 465.15 K | 222.2 | –
[2], 470.15 K | 224.9 | –
